Where two headings read alike, the source gives them in different places.
What was measured:
[1] = test system: Pseudomonas aeruginosa (12 strains); assay: MIC range, broader panel of Quotient Bioresearch strains (Table 4); format: cell-based; conditions: for MIC50: read-out: MIC Range Median, Pseudomonas aeruginosa (12 strains)
[2] = test system: Streptococcus pyogenes (4 strains); assay: MIC range, broader panel of Quotient Bioresearch strains (Table 3); conditions: for MIC50: read-out: MIC Range Median, Streptococcus pyogenes (4 strains)
[3] = test system: Streptococcus pneumonia (5 strains); assay: as above; conditions: Streptococcus pneumoniae; for MIC50: read-out: MIC Range Median, Streptococcus pneumonia (5 strains)
[4] = test system: Burkholderia cepacia (5 strains); assay: MIC range, broader panel of Quotient Bioresearch strains (Table 4); format: cell-based; conditions: for MIC50: read-out: MIC Range Median, Burkholderia cepacia (5 strains)
[5] = test system: Acinetobacter baumannii (12 strains); assay: as above; format: cell-based; conditions: for MIC50: read-out: MIC Range Median, Acinetobacter baumannii (12 strains)
[6] = test system: Haemophilus influenza (5 strains); assay: as above; format: cell-based, Haemophilus influenzae; conditions: for MIC50: 16 h, Median of the strain panel
[7] = test system: Group C Streptococcus (4 strains); assay: MIC range, broader panel of Quotient Bioresearch strains (Table 3); conditions: for MIC50: read-out: MIC Range Median, Group C Streptococcus (4 strains)
[8] = test system: Enterococcus faecium (3 strains); assay: as above; conditions: for MIC50: read-out: MIC Range Median, Enterococcus faecium (3 strains)
[9] = test system: Enterococcus faecalis (5 strains); assay: as above; conditions: for MIC50: read-out: MIC Range Median, Enterococcus faecalis (5 strains)
[10] = test system: Klebsiella pneumonia (4 strains); assay: MIC range, broader panel of Quotient Bioresearch strains (Table 4); format: cell-based; conditions: Klebsiella pneumoniae; for MIC50: read-out: MIC Range Median, Klebsiella pneumonia (4 strains)
[11] = test system: Escherichia coli (6 strains); assay: as above; format: cell-based; conditions: for MIC50: read-out: MIC Range Median, Escherichia coli (6 strains)
[12] = test system: Staphylococcus aureus (16 strains); assay: MIC range, broader panel of Quotient Bioresearch strains (Table 3); conditions: for MIC50: read-out: MIC Range Median, Staphylococcus aureus (16 strains)
[13] = read-out: MIC Range High, Pseudomonas aeruginosa (12 strains)
[14] = read-out: MIC Range High, Streptococcus pyogenes (4 strains)
[15] = read-out: MIC Range Low, Streptococcus pyogenes (4 strains)
[16] = read-out: MIC Range High, Streptococcus pneumonia (5 strains)
[17] = read-out: MIC Range Low, Streptococcus pneumonia (5 strains)
[18] = read-out: MIC Range High, Burkholderia cepacia (5 strains)
[19] = read-out: MIC Range Low, Burkholderia cepacia (5 strains)
[20] = read-out: MIC Range High, Acinetobacter baumannii (12 strains)
[21] = read-out: MIC Range Low, Acinetobacter baumannii (12 strains)
[22] = High of the strain panel, read-out: MIC Range High, Haemophilus influenza (5 strains)
[23] = Low of the strain panel, read-out: MIC Range Low, Haemophilus influenza (5 strains)
[24] = read-out: MIC Range High, Group C Streptococcus (4 strains)
[25] = read-out: MIC Range Low, Group C Streptococcus (4 strains)
[26] = read-out: MIC Range High, Enterococcus faecium (3 strains)
[27] = read-out: MIC Range Low, Enterococcus faecium (3 strains)
[28] = read-out: MIC Range High, Enterococcus faecalis (5 strains)
[29] = read-out: MIC Range Low, Enterococcus faecalis (5 strains)
[30] = read-out: MIC Range High, Klebsiella pneumonia (4 strains)
[31] = read-out: MIC Range Low, Klebsiella pneumonia (4 strains)
[32] = read-out: MIC Range High, Escherichia coli (6 strains)
[33] = read-out: MIC Range Low, Escherichia coli (6 strains)
[34] = read-out: MIC Range High, Staphylococcus aureus (16 strains)
[35] = read-out: MIC Range Low, Staphylococcus aureus (16 strains)

**Q.** Which MIC [1, 13] does the source give for `Cc1c(-c2ccc(C(N)=O)cc2)c(F)cn2c(=O)c(C(=O)[O-])cc(C3CC3)c12.[K+]` [Example 6 K salt, potassium 8-(4-carbamoyl-phenyl)-1-cyclopropyl-7-fluoro-9-methyl-4-oxo-4H-quinolizine-3-carboxylate] here?
**A.** > 32 µg/mL

**Q.** And the MIC ([1]; read-out: MIC Range Low, Pseudomonas aeruginosa (12 strains))?
**A.** 8 µg/mL

**Q.** What about the MIC50 [1] of the same compound?
**A.** > 32 µg/mL

**Q.** What about the MIC [2, 14] of the same compound?
**A.** 0.25 µg/mL

**Q.** What about the MIC [2, 15] of the same compound?
**A.** 0.12 µg/mL

**Q.** What about the MIC50 [2] of the same compound?
**A.** 0.12 µg/mL

**Q.** What about the MIC [3, 16] of the same compound?
**A.** 0.25 µg/mL

**Q.** And the MIC [3, 17]?
**A.** 0.25 µg/mL

**Q.** And the MIC50 [3]?
**A.** 0.25 µg/mL

**Q.** What about the MIC [4, 18] of the same compound?
**A.** 4 µg/mL

**Q.** What about the MIC [4, 19] of the same compound?
**A.** 1 µg/mL

**Q.** What about the MIC50 [4] of the same compound?
**A.** 2 µg/mL

**Q.** What about the MIC [5, 20] of the same compound?
**A.** > 32 µg/mL

**Q.** What about the MIC [5, 21] of the same compound?
**A.** 1 µg/mL

**Q.** And the MIC50 [5]?
**A.** > 32 µg/mL

**Q.** And the MIC50 [6]?
**A.** 0.03 µg/mL

**Q.** What about the MIC [6, 22] of the same compound?
**A.** 0.06 µg/mL

**Q.** What about the MIC [6, 23] of the same compound?
**A.** 0.03 µg/mL

**Q.** And the MIC [7, 24]?
**A.** 0.12 µg/mL

**Q.** And the MIC [7, 25]?
**A.** 0.06 µg/mL

**Q.** What about the MIC50 [7] of the same compound?
**A.** 0.12 µg/mL

**Q.** What about the MIC [8, 26] of the same compound?
**A.** 8 µg/mL

**Q.** What about the MIC [8, 27] of the same compound?
**A.** 1 µg/mL

**Q.** What about the MIC50 [8] of the same compound?
**A.** 2 µg/mL

**Q.** What about the MIC [9, 28] of the same compound?
**A.** 4 µg/mL

**Q.** And the MIC [9, 29]?
**A.** 0.12 µg/mL

**Q.** What about the MIC50 [9] of the same compound?
**A.** 0.25 µg/mL

**Q.** What about the MIC [10, 30] of the same compound?
**A.** > 32 µg/mL

**Q.** And the MIC [10, 31]?
**A.** 1 µg/mL

**Q.** And the MIC50 [10]?
**A.** > 32 µg/mL

**Q.** What about the MIC [11, 32] of the same compound?
**A.** > 32 µg/mL

**Q.** And the MIC [11, 33]?
**A.** 0.25 µg/mL

**Q.** What about the MIC50 [11] of the same compound?
**A.** > 32 µg/mL

**Q.** And the MIC [12, 34]?
**A.** 1 µg/mL

**Q.** And the MIC [12, 35]?
**A.** 0.03 µg/mL

**Q.** And the MIC50 [12]?
**A.** 0.5 µg/mL

**Q.** With `Cc1c(-c2ccc(CN)cc2)ccn2c(=O)c(C(=O)[O-])cc(C3CC3)c12.[K+]` [Example 31 K salt, potassium 8-(4-(amino-methyl)-phenyl)-1-cyclopropyl-9-methyl-4-oxo-4H-quinolizine-3-carboxylate] as the compound, how does the MIC [1, 13] read?
**A.** > 32 µg/mL

**Q.** And the MIC50 [1]?
**A.** 8 µg/mL

**Q.** And the MIC [2, 14]?
**A.** 0.25 µg/mL

**Q.** What about the MIC [2, 15] of the same compound?
**A.** 0.06 µg/mL

**Q.** And the MIC50 [2]?
**A.** 0.09 µg/mL

**Q.** And the MIC [3, 16]?
**A.** 0.25 µg/mL

**Q.** What about the MIC [3, 17] of the same compound?
**A.** 0.06 µg/mL

**Q.** What about the MIC50 [3] of the same compound?
**A.** 0.12 µg/mL

**Q.** What about the MIC [4, 18] of the same compound?
**A.** 1 µg/mL

**Q.** And the MIC [4, 19]?
**A.** 0.12 µg/mL

**Q.** And the MIC50 [4]?
**A.** 0.5 µg/mL

**Q.** What about the MIC [5, 20] of the same compound?
**A.** > 32 µg/mL

**Q.** And the MIC [5, 21]?
**A.** 0.03 µg/mL

**Q.** And the MIC50 [5]?
**A.** 8 µg/mL

**Q.** And the MIC50 [6]?
**A.** ≤ 0.015 µg/mL

**Q.** And the MIC [6, 22]?
**A.** ≤ 0.015 µg/mL

**Q.** And the MIC [6, 23]?
**A.** ≤ 0.015 µg/mL

**Q.** And the MIC [7, 24]?
**A.** 0.12 µg/mL

**Q.** And the MIC [7, 25]?
**A.** 0.06 µg/mL

**Q.** What about the MIC50 [7] of the same compound?
**A.** 0.09 µg/mL

**Q.** And the MIC [8, 26]?
**A.** 8 µg/mL

**Q.** And the MIC [8, 27]?
**A.** 0.5 µg/mL

**Q.** And the MIC50 [8]?
**A.** 4 µg/mL

**Q.** What about the MIC [9, 28] of the same compound?
**A.** 4 µg/mL

**Q.** And the MIC [9, 29]?
**A.** 0.06 µg/mL

**Q.** And the MIC50 [9]?
**A.** 0.12 µg/mL

**Q.** And the MIC [10, 30]?
**A.** 32 µg/mL

**Q.** What about the MIC [10, 31] of the same compound?
**A.** 0.03 µg/mL

**Q.** What about the MIC50 [10] of the same compound?
**A.** 9 µg/mL

**Q.** What about the MIC [11, 32] of the same compound?
**A.** 32 µg/mL

**Q.** What about the MIC [11, 33] of the same compound?
**A.** ≤ 0.015 µg/mL

**Q.** And the MIC50 [11]?
**A.** 8 µg/mL

**Q.** And the MIC [12, 34]?
**A.** 2 µg/mL

**Q.** What about the MIC [12, 35] of the same compound?
**A.** ≤ 0.015 µg/mL

**Q.** And the MIC50 [12]?
**A.** 0.5 µg/mL

From patent publication US8962842B2, “2-pyridone antimicrobial compositions” (priority 2010, dated 2015)
